Patent EP0133259A2, “Aminoalkyl-substituted benzene derivatives, process for production thereof, and pharmaceutical composition thereof” (KOWA COMPANY, LTD., priority 1983, dated 1985)
Where a name gives a salt, the structure may show the parent alone.

Legend:
[1] = system: Chloroform-Induced Arrhythmia; assay: Activity on chloroform-induced arrhythmia; assay type: in vivo, ICR-strain mice; details: 100 mg/kg orally; for Antiarrhythmic activity: Rate of onset of VF / Antiarrhythmic activity: Rate of onset of VT: 10 mice per group; for Antiarrhythmic activity: Rate of onset of VF: ventricular fibrillation after chloroform vapor; for Antiarrhythmic activity: Rate of onset of VT: ventricular tachycardia after chloroform vapor; for Antiarrhythmic activity: Duration of activity: relative to the duration time of Lidocaine (+)
Method: Activity on Chloroform-Induced Arrhythmia:-ICR-strain mice having a body weight of 20 to 30 g (10 per group) were used, and the test compound was administered orally in a dose of 100 mg/kg. The mice were put in a 1-liter beaker, and observed for 20 minutes for their symptoms or conditions. Then, they were placed in a vessel saturated with a vapor of chloroform, and the time which elapsed until the animals ceased to breathe was measured. After the stopping of the breathing, the mice were taken out from the vessel and their cardiograms were taken. The rates of onset of ventricular tachycardia (VT) and ventricular fibrillation (VF) and their conditions were observed. The duration of activity was determined by using as a standard the time during which the mice were put in the chloroform- saturated vessel. […] Lidocaine was used as a comparative drug.

blood pressure = assay: Hypotensive action (average blood pressure via carotid cannula, conscious animals); assay type: in vivo, Mice
Method: Hypotensive action:- • Mice having a body weight of about 30 g (5 per group) were used. Under anaesthesia with pentobarbital, the carotid was […] from each animal. A cannula was inserted into the animal and connected to a pressure transducer. A tracheal cannula was applied, and the animal was fixed on its back. After the animals awoke from anesthesia, their average blood pressures were measured by the pressure transducer.
The drug was orally administered in a dose of 30 mg/kg, and changes in the blood pressure were measured. Physiological saline was administered to a control group.
The drug used in Test Example 2 was the compound prepared in Example 6.

## COc1ccc(OCCO[N+](=O)[O-])cc1OCC(C)N (stereo not drawn) [Example 4, 1-[2-Methoxy-5-(2-nitroxyethoxy)phenoxy]-2-propanamine.maleate]
[1]
  Antiarrhythmic activity: Rate of onset of VF: 0/10
  Antiarrhythmic activity: Rate of onset of VT: 4/10
  Antiarrhythmic activity: Duration of activity: ++

## CC(N)C(=O)Nc1cc(OCCO[N+](=O)[O-])ccc1F (stereo not drawn) [Example 24, 2-Amino-2'-fluoro-5'-(2-nitroxyethoxy)propionanilide]
[1]
  Antiarrhythmic activity: Rate of onset of VF: 0/10
  Antiarrhythmic activity: Rate of onset of VT: 2/10
  Antiarrhythmic activity: Duration of activity: +

## Cc1cc(OCCO[N+](=O)[O-])cc(C)c1NC(=O)C(C)N (stereo not drawn) [Example 6, 2-Amino-2',6'-dimethyl-4'-(2-nitroxyethoxy)-propionanilide·hydrochloride]
[1]
  Antiarrhythmic activity: Rate of onset of VF: 0/10
  Antiarrhythmic activity: Rate of onset of VT: 1/10
  Antiarrhythmic activity: Duration of activity: ++
Blood pressure; 30 mg/kg orally, 10 minutes after the administration
  Average blood pressure: 73.3 ±8.5 (*) mmHg
Blood pressure; 30 mg/kg orally, 30 minutes after the administration
  Average blood pressure: 76.4 ±7.8 (*) mmHg
Blood pressure; 30 mg/kg orally, 60 minutes after the administration
  Average blood pressure: 77.4 ±8.1 (*) mmHg
Blood pressure; 30 mg/kg orally, 120 minutes after the administration
  Average blood pressure: 80.3 ±8.0 (**) mmHg
Blood pressure; before administration, 5 mice per group
  Average blood pressure: 86.3 ±6.8 mmHg

## Cc1cc(OCC(F)(F)F)cc(C)c1NC(=O)C(C)N (stereo not drawn) [Example 41, 2-Amino-2',6^1-dimethyl-4^1-(2,2,2-trifluoroethoxy)propionanilide·hydrochloride]
[1]
  Antiarrhythmic activity: Rate of onset of VF: 1/10
  Antiarrhythmic activity: Rate of onset of VT: 0/10
  Antiarrhythmic activity: Duration of activity: +++

## COc1ccc(OCC(F)(F)F)cc1NC(=O)CC(C)N (stereo not drawn) [Example 3, 3-Amino-2'-methoxy-5'-(2,2,2-trifluoroethoxy)-butyranilide-hemifumarate]
[1]
  Antiarrhythmic activity: Rate of onset of VF: 0/10
  Antiarrhythmic activity: Rate of onset of VT: 2/10
  Antiarrhythmic activity: Duration of activity: +++

## Cc1ccc(OCC(F)(F)F)cc1NC(=O)CC(C)N (stereo not drawn) [Example 40, 3-Amino-2'-methyl-5'-(2,2,2-trifluoroethoxy)-butyranilide·hydrochloride]
[1]
  Antiarrhythmic activity: Rate of onset of VF: 0/10
  Antiarrhythmic activity: Rate of onset of VT: 0/10
  Antiarrhythmic activity: Duration of activity: +++

## Cc1ccc(OCCO[N+](=O)[O-])cc1NC(=O)CC(C)N (stereo not drawn) [Example 22, 3-Amino-2'-methyl-5'-(2-nitroxyethoxy)butyr.- anilide-hydrochloride]
[1]
  Antiarrhythmic activity: Rate of onset of VF: 0/10
  Antiarrhythmic activity: Rate of onset of VT: 0/10
  Antiarrhythmic activity: Duration of activity: ++

## CCN(CC)CC(=O)Nc1c(C)cccc1C [Lidocaine, reference compound]
[1]
  Antiarrhythmic activity: Rate of onset of VF: 2/10
  Antiarrhythmic activity: Rate of onset of VT: 0/10
  Antiarrhythmic activity: Duration of activity: +
[1]; symptoms observed for 20 minutes, indicated when the same tendency was seen in all subjects
  Condition: Weak sedation

## Cc1ccc(OCC(F)(F)F)cc1NC(=O)C(C)N (stereo not drawn) [Example 38, 2-Amino-2'-methyl-5'-(2,2,2-trifluoroethoxy)-propionanilide]
[1]
  Antiarrhythmic activity: Rate of onset of VF: 2/10
  Antiarrhythmic activity: Rate of onset of VT: 5/10
  Antiarrhythmic activity: Duration of activity: +
